{"source": "patent US20240360458A1", "about": "“TARGETED AND SLOW-RELEASE DRUG CONJUGATE COMPOSITION” (Centre for Eye and Vision Research Limited, priority 2023, published 2024)", "key": {"[1]": {"test_system": "human corneal epithelial cells (HCECs)", "assay": "Flow cytometry binding affinity of aptamer CsA liposomes in HCECs", "conditions": "liposome vs free aptamer", "protocol": "The binding affinity of each aptamer liposome in HCECs was measured by flow cytometry. The cells were incubated with liposomes at room temperature, instead of in a 37° C. incubator, to reduce the internalization of liposomes by endocytosis. […] This apparent Kd is much lower than that observed in the free aptamers, for example, Cornea-S1 being 300-fold lower, and this was attributed to the stronger polyvalent binding increasing the avidity of the aptamer-functionalized liposomes.\n(§1) The cells were then incubated with blocking buffer (1% BSA, 0.1 mg mL^−1 Salmon sperm DNA in PBS) for 30 min at room temperature. After washing with PBS under centrifugation, 3×10^5 cells were incubated with pre-heated Cornea-S1 or Cornea-S2 aptamers or aptamer liposomes at various concentrations in PBS for 30 min at room temperature. After incubation, the cells were rinsed three times with 500 μL of PBS and then resuspended in 200 μL of PBS. The fluorescence signal was analyzed with a NovoCyte Flow Cytometer (Agilent Technologies). The equilibrium dissociation constants (Kd) value of each aptamer or aptamer liposome was obtained by GraphPad Prism 9 according to […]"}, "[2]": {"test_system": "cell surface protein of HCECs", "assay": "Flow cytometry of aptamer binding to intact vs trypsin-treated HCECs", "parameters": "species or system human", "protocol": "To understand the type of target, the HCECs were treated with trypsin, which degraded surface proteins.\nas §1"}, "[3]": {"test_system": "human corneal epithelial cells (HCECs)", "assay": "Flow cytometry binding of FAM-labelled aptamers to HCECs", "conditions": "FAM-labelled free aptamer, room temperature, read-out: dissociation constant (Kd) of aptamer in HCECs", "protocol": "Due to the large size of cornea tissue, it is difficult to do quantitative binding assays. Thus, the binding of FAM-labelled aptamer to human corneal epithelial cells (HCECs) was tested using flow cytometry and fluorescence microscopy. BSA and salmon DNA were added to the blocking buffer to reduce non-specific binding before the incubation with FAM-labelled aptamers.\nas §1"}, "[4]": {"test_system": "BAC-induced dry eye rabbit model", "assay": "Corneal fluorescein staining in BAC-induced dry eye rabbits", "format": "in vivo, New Zealand White rabbits", "conditions": "4-week 0.1% BAC, then topical treatment twice daily up to 3 weeks", "protocol": "(§2) A 4-week 0.1% BAC treatment could induce stable dry eye condition in rabbits and no severe corneal damage was observed. Thus, a 4-week 0.1% BAC installation followed by a 3-week topical treatment of Restasis® or liposomes was used in the present invention. Corneal fluorescein staining, tear breakup time and tear production were measured before and after BAC installation and weekly throughout the 3-week treatment period.\n(§3) Ten male New Zealand White rabbits, weighing between 3 to 3.5 kg each, were procured from Charles River Laboratories. They were housed within the Centralized Animal Facility at the University of Waterloo, where they were subjected to a 12-hour cycle of alternating light and darkness. The temperature was maintained at 23° C.±2° C., with a relative humidity of 60%±10%. The entire experimental procedure was conducted by ethical guidelines and received approval from the Animal Care Committee under Application No. 44737. Upon a 2-week acclimation period, eight rabbits were chosen at random to induce stable dry eye disease. This was achieved through the topical application of 0.1% benzalkonium chloride (BAC) at a dosage of 20 μL per installation. This protocol was repeated twice a day (at 10 a.m. and 5 p.m.) for the subsequent 4 weeks. The remaining two rabbits constituted the control group and received PBS through a similar administration schedule. […]"}, "[5]": {"test_system": "HCECs in hyperosmolarity medium", "assay": "Cellular uptake and retention of CsA liposomes in dry eye HCECs model", "format": "cell-based, human", "conditions": "DED model", "protocol": "To construct a dry eye disease (DED) cell model, HPV-immortalized human corneal epithelial cells (HCECs) (passages 6-10) were maintained in DMEM/F12 medium supplemented with 1% FBS and 1% penicillin/streptomycin at 37° C., 95% humidity, and 5% CO2. The cell medium was changed every 2 days. To establish an in vitro DED model, sodium chloride was added to the culture medium to increase the osmolarity of the medium by 200 mOsM.\nHCECs were seeded on glass bottom culture dishes at 10,000 cells/compartment for 24 h. To test the binding of the aptamer to cells, HCECs were incubated with FAM-labelled T30 DNA sequence (negative control), Cornea-S1, or Cornea-S2 aptamers for 30 min. […] HCECs cultured in the isosmotic medium were used as a control. After incubation, the cells were washed 2 times with ice-cold PBS and were then stained with 1 μg mL^−1 Hoechst 33342 in PBS for nucleus staining for 1 min at RT. Fluorescence images were captured at the mid-plane of cells (magnification: 400×) by Nikon Eclipse Ti Inverted Research Microscope. […]\nThe CsA-loaded liposomes were tested for cellular uptake and retention in a dry eye HCECs model induced by a high osmolarity medium. […] Additionally, liposome retention in cells was assessed by pretreating the cells with liposomes for 4 hours, followed by a 20-hour incubation period in liposome-free medium."}, "[6]": {"test_system": "human corneal epithelial cells (HCECs)", "assay": "Fluorescence microscopy of FAM-labelled aptamer binding in HCECs", "conditions": "FAM-labelled DNA, 30 min incubation", "protocol": "HCECs were seeded on glass bottom culture dishes at 10,000 cells/compartment for 24 h. To test the binding of the aptamer to cells, HCECs were incubated with FAM-labelled T30 DNA sequence (negative control), Cornea-S1, or Cornea-S2 aptamers for 30 min. […] HCECs cultured in the isosmotic medium were used as a control. After incubation, the cells were washed 2 times with ice-cold PBS and were then stained with 1 μg mL^−1 Hoechst 33342 in PBS for nucleus staining for 1 min at RT. Fluorescence images were captured at the mid-plane of cells (magnification: 400×) by Nikon Eclipse Ti Inverted Research Microscope. The excitation wavelengths of Hoechst, Rh-PE, and FAM were 361 nm, 560 nm, and 498 nm respectively.\nFurthermore, the binding of FAM-labelled aptamers in HCECs was visualized under a fluorescence microscope."}, "[7]": {"test_system": "unidentified trypsin-sensitive surface protein(s) of human corneal epithelial cells (HCECs) (Homo sapiens)", "assay": "flow"}, "[8]": {"test_system": "BAC-induced dry eye rabbit model", "assay": "Tear break-up time (TBUT) in BAC-induced dry eye rabbits", "format": "in vivo, New Zealand White rabbits", "conditions": "after 4 weeks of 0.1% BAC installation", "protocol": "as §2\nas §3, with “disease.” for “disease. This was achieved through the topical application of 0.1% benzalkonium chloride (BAC) at a dosage of 20 μL per installation. This protocol was repeated twice a day (at 10 a.m. and 5 p.m.) for the subsequent 4 weeks. The remaining two rabbits constituted the control group and received PBS through a similar administration schedule.”\nRabbits were sedated by the aforementioned procedure. TBUT was evaluated utilizing a handheld EasyTear® VIEW+ Tearscope with a grid pattern, in conjunction with the S4 OPTIK HR Elite Mega Digital Vision system. […] This measurement was repeated thrice to ensure accuracy, and an average value was calculated for analysis."}, "[9]": {"test_system": "BAC-induced dry eye rabbit model", "assay": "Tear production (Schirmer tear strips) in BAC-induced dry eye rabbits", "format": "in vivo, New Zealand White rabbits", "conditions": "after 4-week 0.1% BAC installation", "protocol": "as §2\nas §3, with “disease.” for “disease. This was achieved through the topical application of 0.1% benzalkonium chloride (BAC) at a dosage of 20 μL per installation. This protocol was repeated twice a day (at 10 a.m. and 5 p.m.) for the subsequent 4 weeks. The remaining two rabbits constituted the control group and received PBS through a similar administration schedule.”\nThe aqueous tear production was measured with Schirmer Tear Strips (SPORTS WORLD VISION). The strips were placed inside the margin of the nictitating membrane of the lower eyelid of the rabbit for 5 min and the wetting length of the strip was measured as an indication of tear production."}, "[10]": {"conditions": "3'-FAM, whole-cell apparent Kd, PBS, room temperature, 30 min, trypsin treatment lowers binding"}}, "data": [{"substance": "Cornea-S1: DNA aptamer from cornea tissue-SELEX, family 1: GACGACGGCAAGGGGAAAGTGGTCGTAATCACGACGGTCGTC (DNA, backbone not given here; further chemistry not fully specified)", "values": [{"measurement": "apparent Kd of liposome lower than that of the free aptamer", "setting": "[1]", "result": 300, "unit": "fold"}, {"measurement": "FAM signals in trypsin-treated cells compared with intact cells", "setting": "[2]", "result": "significantly lower FAM signals"}, {"measurement": "Kd", "setting": "[3]", "result": 362, "unit": "nM"}, {"measurement": "corneal fluorescein staining / corneal integrity", "setting": "[4]", "result": "markedly diminished to residual staining or isolated dots"}, {"measurement": "extended retention of liposomes", "setting": "[5]", "result": "up to 24 hours"}, {"measurement": "FAM signals in HCECs under fluorescence microscope", "setting": "[6]; listed as Conrea-S1", "result": "intensive FAM signals"}, {"measurement": "FAM signals in HCECs under fluorescence microscope", "setting": "[6]; listed as Corena-S1", "result": "observably higher than Conrea-S2 and S2.2 aptamer"}]}, {"substance": "Cornea-S2: DNA aptamer from cornea tissue-SELEX, family 2: GACGACTTATGCTTGGGACCTGATCCGGACTACGGTGTCGTC (DNA, backbone not given here; further chemistry not fully specified)", "values": [{"measurement": "FAM signals in trypsin-treated cells compared with intact cells", "setting": "[2]", "result": "significantly lower FAM signals"}, {"measurement": "Kd", "setting": "[3]", "result": 174, "unit": "nM"}, {"measurement": "extended retention of liposomes", "setting": "[5]", "result": "up to 24 hours"}, {"measurement": "FAM signals in HCECs under fluorescence microscope", "setting": "[6]", "result": "intensive FAM signals"}]}, {"substance": "GACGACGGCAAGGGGAAAGTGGTCGTAATCACGACGGTCGTC [FAM-Cornea-S1]", "values": [{"measurement": "Kd", "setting": "[7]; [10]", "result": 362, "unit": "nM"}]}, {"substance": "GACGACGGCAAGGGGAAAGTGGTCGTAATCACGACGGTCGTCTTTTT [Cornea-S1-chol liposome]", "values": [{"measurement": "Kd", "setting": "[7]; 3'-cholesterol, inserted in CsA liposome (about 690 strands per liposome), polyvalent liposome on whole cells, PBS, room temperature", "result": 1.2, "unit": "nM"}]}, {"substance": "GACGACTTATGCTTGGGACCTGATCCGGACTACGGTGTCGTC [FAM-Cornea-S2]", "values": [{"measurement": "Kd", "setting": "[7]; [10]", "result": 174, "unit": "nM"}]}, {"substance": "GACGACTTATGCTTGGGACCTGATCCGGACTACGGTGTCGTCTTTTT [Cornea-S2-chol liposome]", "values": [{"measurement": "Kd", "setting": "[7]; 3'-cholesterol, inserted in CsA liposome (about 690 strands per liposome), polyvalent liposome on whole cells, p92 gives 15.1 nM", "result": 15, "unit": "nM"}]}, {"substance": "benzalkonium chloride [BAC]", "values": [{"measurement": "reduction in TBUT compared to baseline", "setting": "[8]", "result": "60-70%"}, {"measurement": "decrease in tear production", "setting": "[9]", "result": "25-35%"}]}]}
